According to US20200261434A1, “IDH1 INHIBITORS FOR THE TREATMENT OF HAEMATOLOGICAL MALIGNANCIES AND SOLID TUMORS” (Agios Pharmaceuticals, Inc., priority 2016, published 2020):
Where a chain is given by its changes, count along the chain named. Values after ≈ are worked out from the molar mass of the structure shown.

Legend:
[1] = biological target: T1, IDH2 R172K (Homo sapiens, UniProt P48735, R172K); experiment: Phase 1/2 clinical study AG221-C-001, pharmacodynamic response (2-HG), R172K subjects; type: in vivo; settings: subjects with R172K mutation
T1 construct: endogenous in cells; host or cells: malignant haematologic cells of human subjects (in vivo; 2-HG measured in blood)
T1 sequence (P48735 40-452 R172K): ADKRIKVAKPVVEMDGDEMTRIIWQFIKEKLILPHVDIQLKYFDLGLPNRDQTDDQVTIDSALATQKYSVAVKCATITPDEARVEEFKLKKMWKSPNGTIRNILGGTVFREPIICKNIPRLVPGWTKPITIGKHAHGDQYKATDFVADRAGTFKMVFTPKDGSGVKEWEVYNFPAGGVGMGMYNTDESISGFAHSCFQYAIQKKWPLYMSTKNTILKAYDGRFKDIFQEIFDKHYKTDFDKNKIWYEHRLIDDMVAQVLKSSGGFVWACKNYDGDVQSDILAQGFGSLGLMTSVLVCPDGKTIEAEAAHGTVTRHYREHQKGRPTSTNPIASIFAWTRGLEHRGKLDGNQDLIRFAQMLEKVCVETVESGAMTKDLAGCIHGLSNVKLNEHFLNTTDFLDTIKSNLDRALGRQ
Source text: (§1) Three days prior to the start of daily dosing of AG-221 (Day −3), the first 3 subjects enrolled in each cohort in the dose escalation phase and the first 15 subjects enrolled in each arm of Part 1 Expansion will receive a single dose of AG-221 in clinic and have serial blood and urine samples obtained for determination of blood and urine concentrations of AG-221, its metabolite AGI-16903, 2-HG, and α-KG. A full 72-hour PK/PD profile will be conducted: subjects will be required to remain at the study site for 10 hours on Day −3 and return on Days −2, −1, and 1 for 24-, 48-, and 72-hour samples, respectively. During the in-clinic period on Day −3, clinical observation and serial 12-lead ECGs and vital signs assessments will be conducted.
(§2) Subjects in the dose escalation phase and Part 1 Expansion also will undergo PK/PD assessments over a 10-hour period on C1D15, C2D1, and C4D1. […] These subjects will have urine collected for PK/PD evaluation at screening; prior to dosing on C1D15, C2D1 and Day 1 of all cycles thereafter; and at the End of Treatment visit. Available bone marrow biopsy samples also will be assessed for 2-HG and α-KG levels.
(§3) Serial blood sampling for determination of concentration-time profiles of COMPOUND 1 and its metabolite (6-(6-(trifluoromethyl)pyridin-2-yl)-N2-(2-(trifluoromethyl)pyridin-4-yl)-1,3,5-triazine-2,4-diamine). […]

[2] = Phase 1/2 clinical study AG221-C-001, safety; type: in vivo, human; settings: 100 mg
Source text: Toxicity severity will be graded according to the National Cancer Institute Common Terminology Criteria for Adverse Events (NCI CTCAE) Version 4.03. A DLT is defined as outlined below.
Monitoring of AEs, including determination of DLTs, serious adverse events (SAEs), and AEs leading to discontinuation; safety laboratory parameters; physical examination findings; vital signs; 12-lead ECGs; LVEF; and ECOG PS.
The severity of AEs will be assessed by the NCI CTCAE, Version 4.03.

[3] = test system: advanced hematologic malignancies with an IDH2 mutation; experiment: Phase 1/2 clinical study AG221-C-001, clinical activity (overall response rate); type: in vivo, human; settings: 44 subjects treated at 100 mg QD, preliminary efficacy data
Source text: Response to treatment and treatment decisions in all subjects will be determined by the Investigators based on modified International Working Group (IWG) response criteriaor other appropriate response criteria for the malignancy under study.
Overall response rate (ORR), the primary efficacy endpoint, is defined as the rate of responders including complete remission (CR), CR with incomplete platelet recovery (CRp), marrow CR (mCR) (morphologic leukemia-free state [MLFS] for subjects with AML), CR with incomplete hematologic recovery (CRi), and partial remission (PR). Other measures of clinical activity including complete remission rate (CRR), duration of remission/response, event-free survival, overall survival, and time to remission/response will be summarized.
For Phase 1 Dose Escalation/Part 1 Expansion, the efficacy analysis of response rates as assessed by the site Investigators using modified International Working Group (IWG) response criteria will be conducted in Full Analysis Set for each dose level, expansion arm, and overall if appropriate.

[4] = biological target: T2, IDH2 R140Q (Homo sapiens, UniProt P48735, R140Q); experiment: Phase 1/2 clinical study AG221-C-001, pharmacodynamic response (2-HG plasma levels), R140Q subjects; type: in vivo; settings: most subjects with R140Q mutation, all doses, by Day 1 of Cycle 2
T2 construct: endogenous in cells; host or cells: malignant haematologic cells of human subjects (in vivo; 2-HG measured in plasma)
T2 sequence (P48735 40-452 R140Q): T1 sequence (P48735 40-452 R172K) with R101Q, K133R
Source text: as §1, §2, §3

[5] = solubility in fasted state simulated intestinal fluid (FASSIF); type: physicochemical; settings: pH 6.1, at 4 hours

With `CC(C)(O)CNc1nc(Nc2ccnc(C(F)(F)F)c2)nc(-c2cccc(C(F)(F)F)n2)n1` [COMPOUND 1, 2-methyl-1-[(4-[6-(trifluoromethyl)pyridin-2-yl]-6-{[2-(trifluoromethyl)pyridin-4-yl]amino}-1,3,5-triazin-2-yl)amino]propan-2-ol] the “inhibition of 2-HG and exposure, dependence on dose” value [1] was “Increasing dose is associated with higher exposure and inhibition of 2-HG”, the “safety profile, including ≥Grade 3” value [2] was “consistent with that of lower doses” and the overall response rate [3] was 36.4%. The “inhibition of 2-HG plasma levels” value [4] was “up to 98%”.

With `N#Cc1ccnc(N2C(=O)CC[C@H]2C(=O)N(c2cncc(F)c2)[C@H](C(=O)NC2CC(F)(F)C2)c2ccccc2Cl)c1` [Form 2, (S)—N—((S)-1-(2-chlorophenyl)-2-((3,3-difluorocyclobutyl)amino)-2-oxoethyl)-1-(4-cyanopyridin-2-yl)-N-(5-fluoropyridin-3-yl)-5-oxopyrrolidine-2-carboxamide] the solubility at 4 h [5] was ~0.018 mg/mL (≈ 30.9 µM).
